Reference: US6344473B1, “Imidazoles useful as nitric oxide synthase inhibitors” (G.D. Searle & Co., priority 2000, dated 2002)
Structures can show the parent of a compound that is named as a salt.

Key:
hiNOS = hiNOS (Homo sapiens, UniProt P35228); test: Citrulline assay for nitric oxide synthase, human in vitro enzyme data, hiNOS; type: biochemical; conditions: human inducible NOS
hecNOS = hecNOS (Homo sapiens, UniProt P29474); test: Citrulline assay for nitric oxide synthase, human in vitro enzyme data, hecNOS; type: biochemical; conditions: human endothelial constitutive NOS
hncNOS = hncNOS (Homo sapiens, UniProt P29475); test: Citrulline assay for nitric oxide synthase, human in vitro enzyme data, hncNOS; type: biochemical; conditions: human neuronal constitutive NOS
[1] = test system: plasma nitrites induced by endotoxin (LPS); test: Low Dose LPS in vivo low-endotoxin assay (plasma nitrites); conditions: mouse

| Structure (SMILES) | IC50 (hiNOS) [µM] | IC50 (hecNOS) [µM] | IC50 (hncNOS) [µM] | Low Dose LPS in vivo Effective Dose (p.o.), inhibition ([1]; 3 mg/kg/day p.o.) [% inh.] | Low Dose LPS in vivo Effective Dose (p.o.), inhibition ([1]; 10 mg/kg/day p.o.) [% inh.] |
| --- | --- | --- | --- | --- | --- |
| Cc1noc(=O)n1CCCC[C@H](NC(=O)OC(C)(C)C)C(=O)O [Example 1, αS-[[(1,1-dimethylethoxy)carbonyl]amino]-4,5-dihydro-3-methyl-5-oxo-1,2,4-oxadiazole-4-hexanoic acid] | > 1000 | > 1000 | > 1000 |  |  |
| Cc1noc(=O)n1CCCCC(N)C(=O)O (centres unmarked) [Example 2, αS-amino-4,5-dihydro-3-methyl-5-oxo-1,2,4-oxadiazole-4-hexanoic acid, monohydrochloride] |  |  |  | 39 | 42 |
| CCOC(=O)[C@@H](N)CCCCn1c(C)noc1=O [Example 3, ethyl αS-amino-4,5-dihydro-3-methyl-5-oxo-1,2,4-oxadiazole-4-hexanoate, monohydrochloride] | 124 | 1430 | 200 |  |  |
